Data published in US7834040B2, “Isoxazolic derivative to relieve neuropathic pain” (Zambon S.p.A., priority 2004, dated 2010).
Entries after “also recorded” stand apart in the source; their conditions may differ.

Legend:
[1] = test system: neuropathic pain caused by chronic constrictive lesion of the sciatic nerve of the rat's hind leg (CCI); assay: Mechanical allodinia in the CCI model of neuropathic pain (chronic constrictive lesion of the sciatic nerve); format: in vivo, male rats of Wistar strain
From the text: The effectiveness of the compound of formula (I) has been tested experimentally in two different models of neuropathic pain caused by chronic constrictive lesion of the sciatic nerve of the rat's hind leg (CCI) and by the ligament of the rat's spinal nerve (SNL), according to the procedure reported in the following experimental part. To a group of male rats of Wistar strain a peripheral neuropathy has been induced by means of ligature of the sciatic nerve (CCI) according to the Bennet and Xie model (Pain 33:87-107, 1988). In order to evaluate the neuropathic pain, the development of mechanical allodinia was measured by calculating the average of the pain perception thresholds in the animals' legs in response to mechanical stimuli, following the method described by Chaplan et al. (Journal Neurosci. Method. 53:55-63, […]). In the first group of experiments the measurements have been carried out before and 14 days after the ligature of the […] (CCI). In the second group of experiments the same parameter has been similarly evaluated before and 14 days after the ligature of the spinal nerve (SNL). In both groups, the mechanical allodinia threshold has been measured before (pre-treatment) and 0.5, 1, 2, 4 and 6 hours after treatment by oral route with the compound of formula (I) at doses of 3, 30 and 300 mg/kg.

[2] = test system: neuropathic pain caused by the ligament of the rat's spinal nerve (SNL); assay: Mechanical allodinia in the SNL model of neuropathic pain (ligature of the spinal nerve); format: in vivo, male rats of Wistar strain
From the text: The effectiveness of the compound of formula (I) has been tested experimentally in two different models of neuropathic pain caused by chronic constrictive lesion of the sciatic nerve of the rat's hind leg (CCI) and by the ligament of the rat's spinal nerve (SNL), according to the procedure reported in the following experimental part. To a second group of male rats of Wistar strain a peripheral neuropathy has been induced by means of ligature of the spinal nerve according to the modified method described by Kim and Chung and which is constituted by the ligature of two (L5-L6) of the three spinal nerves which form the sciatic nerve (Pain 50:355-363, 1992). In order to evaluate the neuropathic pain, the development of mechanical allodinia was measured by calculating the average of the pain perception thresholds in the animals' legs in response to mechanical stimuli, following the method described by Chaplan et al. (Journal Neurosci. Method. 53:55-63, […]). In the first group of experiments the measurements have been carried out before and 14 days after the ligature of the […] (CCI). In the second group of experiments the same parameter has been similarly evaluated before and 14 days after the ligature of the spinal nerve (SNL). In both groups, the mechanical allodinia threshold has been measured before (pre-treatment) and 0.5, 1, 2, 4 and 6 hours after treatment by oral route with the compound of formula (I) at doses of 3, 30 and 300 mg/kg.

neuropathic pain = settings: Rashid et al., J. Pharmacol. Exp. Ther. 303:226-231, 2002; cited from earlier work
[3] = oral route, 3, 30 and 300 mg/kg, 0.5-6 hours after treatment, 14 days after ligature

## Cc1cc(C(=O)NCCCC(=O)O)on1 [compound of formula (I)]
[1]; oral route
  dose from which the antiallodinic effect is statistically significative: ≥ 3 mg/kg
  time after treatment up to which the antiallodinic effect is detected: up to 6 hours
[1]; [3]
  mechanical allodinia (pain perception threshold to mechanical stimuli): reduced in a dose-depending way the mechanical allodinia; also recorded: marked reduction in the neuropathic allodinia
[2]; oral route
  dose from which the antiallodinic effect is statistically significative: ≥ 3 mg/kg
  time after treatment up to which the antiallodinic effect is detected: up to 6 hours
[2]; [3]
  mechanical allodinia (pain perception threshold to mechanical stimuli): reduced in a dose-depending way the mechanical allodinia; also recorded: marked reduction in the neuropathic allodinia

## CC[C@H](C(N)=O)N1CCCC1=O [levitiracetam]
Neuropathic pain
  analgesic effect with respect to the neuropathic pain: do not produce significant analgesic effects

## Cc1cccc(C)c1NC(=O)CN1CCCC1=O [nefiracetam]
Neuropathic pain
  analgesic effect with respect to the neuropathic pain: powerful analgesic effect

## NC(=O)CN1CC(O)CC1=O (stereo not shown) [oxiracetam]
Neuropathic pain
  analgesic effect with respect to the neuropathic pain: do not produce significant analgesic effects

## NC(=O)CN1CCCC1=O [piracetam]
Neuropathic pain
  analgesic effect with respect to the neuropathic pain: do not produce significant analgesic effects
